Each block holds one compound with its values, some of them ahead of it.
Tests used:
[1] = system: Myzus persicae; assay: Aphid settling (choice test) on treated vs control leaves of Brassica rapa subsp. pekinensis; assay type: in vivo; settings: 0.1% solution in 70% ethanol, mean (± SD), n = 8, 20 aphids/replicate
Procedure: (§1) The peach potato aphids Myzus persicae (Sulzer) and the Chinese cabbage Brassica rapa subsp. pekinensis (Lour.) Hanelt were reared in laboratory at 20 °C, 65% r.h., and L16:8D photoperiod. One to seven days old apterous females of M. persicae and 3-week old plants with 4–5 fully developed leaves were used for experiments. M. persicae were obtained from the laboratory culture maintained at the Department of Botany and Ecology for many generations since 2000. All experiments were carried out under the same conditions of temperature, relative humidity, and photoperiod. The bioassays were started at 10–11.a.m. Each compound was dissolved in 70% ethanol to obtain the recommended 0.1% solution[40]. All compounds were applied on the adaxial and abaxial leaf surfaces by immersing a leaf in the ethanolic solution of a given compound for 30 s.[20]. Control leaves of similar size were immersed in 70% ethanol that was used as a solvent for the studied compounds. Experiments were performed 1 h after the compounds application to allow the evaporation of the solvent. Every plant and aphid were used only once.
This bioassay allows the study of aphid host preferences under semi-natural conditions. In the present study, aphids were given free choice between control and treated excised leaves that were placed in a Petri dish. Aphids were placed in the dish equidistance from treated and untreated leaves, so that aphids could choose between treated (on one half of a Petri dish) and control leaves (on the other half of the dish). […] Each experiment was replicated 8 times (n = 8 replicates, 20 viviparous apterous females/replicate). Aphids that were moving or not on any of the leaves were not counted.
The data of the choice-test were analyzed using Student’s t-test (STATISTICA 13.1. package). […] If aphids settled mainly on the control leaf (p < 0.05), the compound tested in the respective choice-test was stated a deterrent. From the data thus obtained the relative index of deterrence (DI) was calculated: DI = (C − T/C + T) where C was the number of aphids settled on control leaf, T was the number of aphids settled on the leaf treated with the tested compound. The value of DI ranged between 1 (ideal deterrent) and − 1 (ideal attractant)[41].

[2] = system: caspase-3/7 in MV4-11 cells; assay: Caspase-3/7 activity determination (Ac-DEVD-ACC substrate); assay type: cell-based, human; settings: MV4-11, 75 µM, 72 h
Procedure: Caspase-3/7 activity determination was performed according to the protocol previously described. The MV4-11 cells were seeded at the density of 1 × 10^5 cells/mL of culture medium on 24-well plates (Sarstedt, Germany) to the final volume of 2 mL. The cells were exposed to the test compounds at concentrations 75 μM or campthothecin (0.05 μg/mL) as a positive control, for 72 h. After 72 h of the incubation, the cells were collected and centrifuged (5 min., 4 °C, 250×g). Cells were suspended in 50 µL of ice-cold lysis buffer (50 mM HEPES, 10% (w/v) sucrose, 150 mM NaCl, 2 mM EDTA, 1% (v/v) Triton X-100, pH 7.3, IIET, Poland) and incubated 30 min. at 4 °C. After the incubation, 40 µL of each sample was transferred to a white, 96-well plate (Corning, USA) containing 160 µL of the reaction buffer (20 mM HEPES, 10% sucrose, 100 mM NaCl, 1 mM EDTA, 10 mM DTT, 0.02% Trition X-100, pH 7.3) (IIET, Wroclaw, Poland) with 9 µM Ac-DEVD-ACC fluorogenic substrate (λex = 360 nm, λem = 460 nm). The fluorescence increase correlated with the caspase-3/7 level was continuously recorded at 37 °C for 120 min using a Biotek Synergy H4 (Biokom, Warsaw, Poland). Compounds were tested in duplicates in single experiment and each experiment was repeated at least three times independently. Results were normalized to the number of cells in each well and are reported as mean relative caspase-3/7 activity compared to untreated control sample ± SD.

[3] = system: Myzus persicae; assay: EPG monitoring of aphid probing and feeding (no-choice test); assay type: in vivo; settings: 8-h EPG
Procedure: as §1
Aphid probing and the phloem sap uptake by M. persicae was monitored using the technique of electronic registration of aphid probing in plant tissues, known as EPG (= Electrical Penetration Graph), that is frequently employed in insect–plant relationship studies considering insects with sucking-piercing mouthparts[42]–[44]. In this experimental set-up, aphid and plant are connected to electrodes and thus made parts of an electric circuit, which is completed when the aphid inserts its stylets into the plant. Weak voltage is supplied in the circuit, and all changing electric properties are recorded as EPG waveforms that can be correlated with aphid activities and stylet position in plant tissues[45],[46]. The parameters describing aphid behaviour during probing and feeding, such as total time of probing, proportion of phloem patterns E1 and E2, number of probes, etc., are good indicators of plant suitability or interference of probing by chemical or physical factors in individual plant tissues[44]–[46]. In the present study, aphids were attached to a golden wire electrode with conductive silver paint (epgsystems. eu) and starved for 1 h prior to the experiment. Probing behaviour of 12 apterous females/studied compound and control was monitored for 8 h continuously with Giga-4 and Giga-8 DC EPG with 1 GΩ of input resistance recording equipment (EPG Systems, Wageningen, The Netherlands). Each aphid was given access to a freshly prepared plant and each aphid/plant combination was used only once. Various behavioural phases were labelled manually using the Stylet + software (www.epgsystems.eu). The following aphid behaviours were distinguished: no penetration (waveform 'np' – aphid stylets outside the plant), pathway phase—penetration of non-phloem tissues (waveforms 'ABC'), phloem phase (salivation into sieve elements, waveform ‘E1’ and ingestion of phloem sap, waveform ‘E2’), and xylem phase (ingestion of xylem sap, waveform 'G'). Waveform ‘G’ occurred rarely irrespective of the treatment. Therefore, in all calculations the xylem phase was added to the pathway phase and termed as probing in non-phloem tissues. The E1/E2 transition patterns were included in E2. Waveform patterns that were not terminated before the end of the experimental period (8 h) were not excluded from the calculations. The parameters derived from EPG recordings were analyzed according to their frequency and duration in configuration related to activities in peripheral and vascular tissues.
All statistical calculations related to data of the no-choice test were performed using StatSoft, Inc. (2014) STATISTICA (data analysis software system), version 12, www.statsoft.com. […]

[4] = system: LoVo cells; assay: Antiproliferative activity, SRB assay; assay type: cell-based, human; settings: for IC50: 72 h exposure, SRB, mean ± SD, n.a = no activity in concentration of 5, 25, 125, 625 μM
Procedure: (§2) Human biphenotypic B myelomonocytic leukemia MV4-11, human colon cancer LoVo cell line and normal mouse fibroblast BALB/3T3 cells were obtained from American Type Culture Collection (Rockville, Maryland, USA), human lung carcinoma A549 cells were obtained from European Collection of Authenticated Cell Cultures (UK). All the cell lines are being maintained at the Hirszfeld Institute of Immunology and Experimental Therapy, PAS, Wroclaw, Poland and were cultured according the procedure described before.
(§3) Cell lines were cultured according to the protocol described before. MV4-11 cells were cultured in RPMI 1640 medium (Gibco, UK) with 1.0 mM sodium pyruvate, and 10% fetal bovine serum (FBS) (all from Sigma-Aldrich, Germany). A549, LoVo and LoVo/DX cells were cultured in RPMI 1640 + Opti-MEM (1:1) (both from Gibco, UK) supplemented with 5% fetal bovine serum, 1.0 mM sodium pyruvate (LoVo and LoVo/DX cells) (all from Sigma Aldrich Germany) and 0.1 μg/mL doxorubicin chloride (Accord) (only LoVo/DX cells). BALB/3T3 cells in Dulbecco medium (IIET, Poland) supplemented with 10% fetal bovine serum (Sigma-Aldrich, Germany). All culture media were supplemented with 2 mM L-glutamine (Sigma-Aldrich, Germany), 100 units/mL penicillin, and 100 µg/mL streptomycin (both from Polfa Tarchomin S.A., Poland). All cell lines were grown at 37 °C with 5% CO2 humidified atmosphere.
(§4) The solutions of the compounds (50 mM) were prepared by dissolving the substances in DMSO (Sigma Aldrich, Germany). Then the tested compounds were diluted in culture medium to reach the final concentrations of 625, 125, 25 and 5 μM. Before adding of the tested compounds (24 h prior), the cells were plated in 96-well plates (Sarstedt, Germany) at a density of 1 × 10^4 or 0.5 × 10^4 (A549) cells per well. The assay was performed after 72 h of exposure to 625, 125, 25 and 5 μM of the tested agents. The in vitro cytotoxic effect of all agents was examined using the MTT (MV4-11) or SRB assay, described previously. The results were calculated as an IC50 (inhibitory concentration 50%) the concentration of tested agent, which is cytotoxic for 50% of the cancer cells. Each compound in each concentration was tested in triplicate in a single experiment, which was repeated 3–5 times.

[5] = system: MV4-11 cells; assay: Antiproliferative activity, MTT assay; assay type: cell-based, human
Procedure: as §2, §3, §4

[6] = system: BALB/3T3 cells; assay: Toxicity towards normal fibroblasts, SRB assay; assay type: cell-based; settings: normal mouse fibroblasts, 72 h exposure, mean ± SD, n.a = no activity in concentration of 5, 25, 125, 625 μM
Procedure: as §2, §3, §4

[7] = system: A549 cells; assay: Antiproliferative activity, SRB assay; assay type: cell-based, human
Procedure: as §2, §3, §4

[8] = system: LoVo/DX cells; assay: Antiproliferative activity, SRB assay, doxorubicin resistant subline; assay type: cell-based, human
Procedure: Cell lines were cultured according to the protocol described before. […] All culture media were supplemented with 2 mM L-glutamine (Sigma-Aldrich, Germany), 100 units/mL penicillin, and 100 µg/mL streptomycin (both from Polfa Tarchomin S.A., Poland). All cell lines were grown at 37 °C with 5% CO2 humidified atmosphere. The solutions of the compounds (50 mM) were prepared by dissolving the substances in DMSO (Sigma Aldrich, Germany). […] The in vitro cytotoxic effect of all agents was examined using the MTT (MV4-11) or SRB assay, described previously. […] Each compound in each concentration was tested in triplicate in a single experiment, which was repeated 3–5 times.

[9] = 0.1% solution, mean ± SE, n = 12
[10] = activities in non-phloem tissues, mean ± SE, n = 10-12
[11] = activities in sieve elements, mean ± SE, n = 10-12
[12] = 72 h exposure, SRB, mean ± SD, n.a = no activity in concentration of 5, 25, 125, 625 μM

Structure (SMILES): C=CC(C)(CCCC(C)CCCC(C)CCCC(C)C)CC(=O)OCC (stereo not shown) [compound 2, ethyl 3,7,11,15-tetramethyl-3-vinylhexadecanoate]
Mean number of aphids settled on treated (test) leaf ([1]; 1 h after access): 10.8 (± 1.7) | Mean number of aphids settled on treated (test) leaf ([1]; 2 h after access): 8.9 (± 0.9) | Mean number of aphids settled on treated (test) leaf ([1]; 24 h after access): 9.6 (± 1.6) | Increase of caspase-3/7 activity compared to the control [2]: about 1.5 times | Mean duration of probing (C + G + E) [3, 9]: 1.4 ± 0.6 h | Number of probes [3, 9]: 17.6 ± 4.1 | Total duration of pathway (C) [3, 9]: 4.7 ± 0.8 h | Total duration of phloem phase (E) [3, 9]: 2.4 ± 0.8 h | Total duration of probing (C + G + E) [3, 9]: 7.3 ± 0.2 h | Number of probes before first phloem phase [3, 10]: 14.9 ± 4.1 | Time from first probe to first phloem phase [3, 10]: 2.9 ± 0.8 h | Duration of first phloem phase [3, 11]: 2.0 ± 0.8 h | Total duration of phloem salivation E1 [3, 11]: 2.4 ± 1.2 min | Total duration of phloem sap ingestion E2 [3, 11]: 2.4 ± 0.8 h | Number of probes < 3 min ([3]; before first phloem phase, mean ± SE, n = 10-12): 9.1 ± 2.7 | Proportion of salivation in phloem phase ([3]; (duration of E1 / duration of E1 + E2)*100): 7.9% | Proportion of phloem phase in total probing ([3]; index = duration of phloem phase E / duration of probing C + G + E): 32.0%

IC50 ([4]; Homo sapiens, LoVo): 0.12 ± 0.01 µM
Structure (SMILES): COc1cccc2c1C(=O)c1c(O)c3c(c(O)c1C2=O)C[C@@](O)(C(=O)CO)C[C@@H]3O[C@H]1C[C@H](N)[C@H](O)[C@H](C)O1 [Doxorubicin]

Structure (SMILES): N.N.[Cl][Pt][Cl] [Cisplatin, reference compound]
IC50 ([5]; 72 h exposure, MTT, mean ± SD, n.a = no activity in concentration of 5, 25, 125, 625 μM): 2.88 ± 0.83 µM | Selectivity index SI, MV4-11 ([5]; SI = IC50 BALB/3T3 / IC50 MV4-11): 1.54 | IC50 [6]: 4.44 ± 2.36 µM | IC50 [7, 12]: 3.97 ± 1.08 µM | Selectivity index SI, A549 ([7]; SI = IC50 BALB/3T3 / IC50 A549): 1.12 | IC50 [4]: 5.55 ± 0.12 µM | Selectivity index SI, LoVo ([4]; SI = IC50 BALB/3T3 / IC50 LoVo): 0.80 | IC50 [8, 12]: 3.45 ± 1.01 µM | IR (index of resistance) ([8]; IR = IC50 against resistant LoVo/DX / IC50 against non-resistant LoVo, 0 < IR < 2 able to overcome drug resistance): 0.62 | Selectivity index SI, LoVo/DX ([8]; SI = IC50 BALB/3T3 / IC50 LoVo/DX): 1.29

Reference: PMC7896091, “Synthesis of novel phytol-derived γ-butyrolactones and evaluation of their biological activity” (Scientific Reports, 2021)
